Laboratory results: publication PMC4511007 (PLoS ONE, 2015)
Like-named read-outs stand apart in the source and are kept apart here.

Key:
VRV-PLA2-VIII = VRV-PLA2-VIII (Daboia russelii, UniProt P59071); experiment: biochemical; design: species or system Vipera russelli
RV venom PLA2 = experiment: Indirect haemolytic activity (RV venom PLA2 inhibition); assay type: biochemical, Vipera russelli; conditions: 1 μg RV venom pre-incubated with compound 10 min at 37°C, NS: Not Significant

Chain of VRV-PLA2-VIII (P59071 whole entry, looked up): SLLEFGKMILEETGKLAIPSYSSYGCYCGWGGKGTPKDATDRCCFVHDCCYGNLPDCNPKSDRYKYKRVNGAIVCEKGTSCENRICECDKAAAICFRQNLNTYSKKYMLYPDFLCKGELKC

Compound	melting point	IC50 (VRV-PLA2-VIII)	IC50 (RV venom PLA2)	IC50 (VRV-PLA2-VIII; read-out: IC50 (μM) VRV-PLA2-VIII)
CC(=O)c1c(C)nc2c(-c3ccc(Cl)c(C(F)(F)F)c3)cccn12 [3a, 1-(8-(4-chloro-3-(trifluoromethyl)phenyl)-2-methylimidazo[1,2-a]pyridin-3-yl)ethanone]	141 to 143 °C	155 µM	110 µM	–
CC(=O)c1c(C)nc2c(-c3ccc(OCc4ccccc4)c(F)c3)cccn12 [3b, 1-(8-(4-(benzyloxy)-3-fluorophenyl)-2-methylimidazo[1,2-a]pyridin-3-yl)ethanone]	154 to 156 °C	140 µM	> 500 µM	–
CC(=O)c1c(C)nc2c(-c3ccccc3)cccn12 [3c, 1-(2-methyl-8-phenylimidazo[1,2-a]pyridin-3-yl)ethanone]	160 to 162 °C	–	194 µM	–
CC(=O)c1c(C)nc2c(-c3cccc(Cl)c3)cccn12 [3d, 1-(8-(3-chlorophenyl)-2-methylimidazo[1,2-a]pyridin-3-yl)ethanone]	114 to 116 °C	89.1 µM	59.1 µM	–
COc1cccc(-c2cccn3c(C(C)=O)c(C)nc23)c1 [3e, 1-(8-(3-methoxyphenyl)-2-methylimidazo[1,2-a]pyridin-3-yl)ethanone]	116 to 119 °C	65.3 µM	46.4 µM	–
CC(=O)c1c(C)nc2c(-c3cccc4ccccc34)cccn12 [3f, 1-(2-methyl-8-(naphthalen-1-yl)imidazo[1,2-a]pyridin-3-yl)ethanone]	179 to 182 °C	23.1 µM	14.3 µM	–
CC(=O)c1c(C)nc2c(-c3ccc(Cl)cc3)cccn12 [3g, 1-(8-(4-chlorophenyl)-2-methylimidazo[1,2-a]pyridin-3-yl)ethanone]	111 to 114 °C	195 µM	219 µM	–
CCC(CCc1cccn2c(C(C)=O)c(C)nc12)C(=O)NC1CCCC1 (centres unmarked) [3h, 4-(3-acetyl-2-methylimidazo[1,2-a]pyridin-8-yl)-N-cyclopentyl-2-ethylbutanamide]	117 to 119 °C	114 µM	105 µM	–
COc1cccc(-c2cccn3c(C(C)=O)c(C)nc23)c1F [3i, 1-(8-(2-fluoro-3-methoxyphenyl)-2-methylimidazo[1,2-a]pyridin-3-yl)ethanone]	190 to 192 °C	135 µM	123 µM	–
CC(=O)c1c(C)nc2c(-c3ccccc3C)cccn12 [3j, 1-(2-methyl-8-(o-tolyl)imidazo[1,2-a]pyridin-3-yl)ethanone]	157 to 159 °C	189 µM	166 µM	–
CC(=O)c1c(C)nc2c(-c3ccc(C(F)(F)F)cc3)cccn12 [3k, 1-(2-methyl-8-(4-(trifluoromethyl)phenyl)imidazo[1,2-a]pyridin-3-yl)ethanone]	121 to 123 °C	–	> 500 µM	> 100 µM
CCc1ccc(-c2cccn3c(C(C)=O)c(C)nc23)cc1 [3l, 1-(8-(4-ethylphenyl)-2-methylimidazo[1,2-a]pyridin-3-yl)ethanone]	169 to 172 °C	43.2 µM	> 500 µM	–
